Tested on: 941728-121-R-J1-PDC complex spheroid viability
Assay: Anticancer human tumor 941728-121-R-J1-PDC patient-derived lung adenocarcinoma cell line growth inhibition [RAS]
Conditions: for IC50: curve of first compound; for viability, T/C: stronger effect = lower value
Description: RAS pathway inhibitors in Combinations in Complex Spheroids
A high-throughput screen of multi-cell type tumor spheroids was designed to identify active combinations of RAS pathway inhibitors and targeted small molecules. Complex spheroids include a stromal component modeled by human endothelial cells (HUVEC) and fibroblasts modeled by human mesenchymal stem cells (MSCs). The concentration ranges selected for each drug and investigational agent were based upon clinically achievable concentrations if the clinical Cmax of the agent was known.
Compounds. The drugs and investigational agents: abemaciclib (NSC768073), cobimetinib (NSC768068), divarasib (GDC6063, NSC841802), docetaxel (NSC628503), GDC-1971 (RLY-1971, NSC841576), gemcitabine (NSC613327), inavolisib (NSC800729), ipatasertib (NSC767898), KB-0742 (NSC834161), MRTX-1133 (NSC836407), osimertinib (NSC779217), RMC-4630 (NSC839698), RMC-6236 (NSC851965), RMC-6291 (NSC852671), Ro-3306 (NSC812927), sapanisertib (NSC764658), SN-38 (NSC673596), staurosporine (NSC755774), SY5609 (NSC837396), and tovorafenib (DAY101, NSC766906), were obtained from the National Cancer Institute (NCI) Developmental Therapeutics Program Chemical Repository. The FDA-approved anticancer drug set is available from the NCI Developmental Therapeutics Program. […] The stock solutions were prepared in dimethyl sulfoxide (DMSO, Sigma-Aldrich, St. Louis, MO, cat. D2650) at 800-fold the tested concentration and stored at -70 degrees C prior to their use. All drugs and investigational agents were tested over a range starting from a high concentration at or near the clinical Cmax and decreasing in half-log increments. If the clinical Cmax for an agent had not been determined, the highest concentration tested was 10 microM.
Cell Culture. All cells were maintained in an incubator at 37 degrees C and 5% CO2 with 95% humidity. The PDC lines were cultured according to standard operating procedures established by the NCI PDMR. All PDCs were thawed and cultured in Matrigel-coated flasks prepared with a working solution of 1X Ham's F-12 nutrient mix, without supplementation (Invitrogen, Waltham, MA, cat. 11765054), 100 U/mL penicillin-streptomycin (Invitrogen, cat. 15140122), and 2.5% Matrigel (Corning Inc., Corning, NY, cat. 354248) for the first three passages. The 362531-283-R-J2-PDC and 782815-120-R-J1-PDC lines were cultured in 6C/Colon 1B media, which includes advanced DMEM/F-12 (Thermo Fisher Scientific, cat. 12634028), 10 mM HEPES (Thermo Fisher Scientific, cat. 15630080), 1X GlutaMAX supplement (Thermo Fisher Scientific, cat. 35050061), 0.1 mg/mL primocin (InvivoGen, San Diego, CA, cat. ant-pm-2), 10% defined fetal bovine serum, heat inactivated (HyClone Laboratories Inc., Logan, UT, cat. SH30070.03HI), 50% L-WRN conditioned media (ATCC, cat. CRL-3276), 1.25 mM N-Acetyl-L-cysteine (Sigma-Aldrich, cat. A9165), 10 mM nicotinamide (Sigma-Aldrich, cat. N0636), 1X B-27 supplement (Thermo Fisher Scientific, cat. 17504044), 1X N-2 supplement (Thermo Fisher Scientific, cat. 17502048), 50 ng/mL human EGF (Thermo Fisher Scientific, cat. PHG0311), and 10 microM Y-27632 dihydrochloride (Tocris Bioscience, cat. 1254). The K12877-001-R-J1-PDC line was cultured in 6I media, which includes all 6C/Colon 1B media plus 10 ng/mL human FGF-10 (PeproTech, cat. 100-26), 1 ng/mL human FGF-2 (PeproTech, cat. 100-18B), 1 µM prostaglandin E2 (Tocris Bioscience, cat. 2296), […] hydrocortisone (Sigma-Aldrich, cat. H4001), and […] bovine insulin (Sigma-Aldrich, cat. I6634). The K86415-001-R-J1-PDC line was cultured in 6D media, which includes all 6C/Colon 1B media components minus the L-WRN conditioned media. The 485176-168-R4-J1-PDC was cultured in PANC media, which includes all 6C/Colon 1B media plus 100 ng/mL human FGF-10 (PeproTech, cat. 100-26), 500 nM SB-431542 (Selleckchem, cat. S1067), and 10 nM gastrin (Tocris Bioscience, cat. 3006). […]

[1] = second compound 0.0316 µM, first compound 0.0316 µM
[2] = second compound 0.0316 µM, first compound 0.1 µM
[3] = second compound 0.0316 µM, first compound 0.316 µM
[4] = second compound 0.0316 µM, first compound 1 µM
[5] = second compound 0.1 µM, first compound 0.0316 µM
[6] = second compound 0.1 µM, first compound 0.1 µM
[7] = second compound 0.1 µM, first compound 0.316 µM
[8] = second compound 0.1 µM, first compound 1 µM
[9] = second compound 0.316 µM, first compound 0.0316 µM
[10] = second compound 0.316 µM, first compound 0.1 µM
[11] = second compound 0.316 µM, first compound 0.316 µM
[12] = second compound 0.316 µM, first compound 1 µM
[13] = second compound 1 µM, first compound 0.0316 µM
[14] = second compound 1 µM, first compound 0.1 µM
[15] = second compound 1 µM, first compound 0.316 µM
[16] = second compound 1 µM, first compound 1 µM
[17] = second compound 3.16 µM, first compound 0.0316 µM
[18] = second compound 3.16 µM, first compound 0.1 µM
[19] = second compound 3.16 µM, first compound 0.316 µM
[20] = second compound 3.16 µM, first compound 1 µM
[21] = second compound 10 µM, first compound 0.0316 µM
[22] = second compound 10 µM, first compound 0.1 µM
[23] = second compound 10 µM, first compound 0.316 µM
[24] = second compound 10 µM, first compound 1 µM
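Note: spheroids exposed to compounds for 7 days before readout.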
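Throughout, for viability, T/C: 100% = DMSO vehicle control viability.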

CC(=O)OC12COC1CC(O)C1(C)C(=O)C(O)C3=C(C)C(OC(=O)C(O)C(NC(=O)OC(C)(C)C)c4ccccc4)CC(O)(C(OC(=O)c4ccccc4)C21)C3(C)C (centres undefined) + C#Cc1c(F)ccc2cc(O)cc(-c3ncc4c(N5CC6CCC(C5)N6)nc(OCC56CCCN5CC(F)C6)nc4c3F)c12
IC50 (second compound 0.0316 µM): < 31.6 nM | IC50 (second compound 0.1 µM): < 31.6 nM | IC50 (second compound 0.316 µM): < 31.6 nM | IC50 (second compound 1 µM): < 31.6 nM | IC50 (second compound 3.16 µM): < 31.6 nM | IC50 (second compound 10 µM): < 31.6 nM | viability, T/C [1]: 39.9% | viability, T/C [2]: 39.7% | viability, T/C [3]: 39.7% | viability, T/C [4]: 37.6% | viability, T/C (second compound 0.0316 µM, first compound 3.16 µM): 42.7% | viability, T/C (second compound 0.0316 µM, first compound 10 µM): 41.7% | viability, T/C [5]: 41.8% | viability, T/C [6]: 36.1% | viability, T/C [7]: 30.3% | viability, T/C [8]: 41.6% | viability, T/C (second compound 0.1 µM, first compound 3.16 µM): 38.2% | viability, T/C (second compound 0.1 µM, first compound 10 µM): 39.1% | viability, T/C [9]: 30.5% | viability, T/C [10]: 36.8% | viability, T/C [11]: 32.6% | viability, T/C [12]: 31.2% | viability, T/C (second compound 0.316 µM, first compound 3.16 µM): 33.3% | viability, T/C (second compound 0.316 µM, first compound 10 µM): 36.7% | viability, T/C [13]: 30.6% | viability, T/C [14]: 32.3% | viability, T/C [15]: 27.8% | viability, T/C [16]: 24.6% | viability, T/C (second compound 1 µM, first compound 3.16 µM): 28.1% | viability, T/C (second compound 1 µM, first compound 10 µM): 31% | viability, T/C [17]: 22.9% | viability, T/C [18]: 26.7% | viability, T/C [19]: 23.2% | viability, T/C [20]: 21.7% | viability, T/C (second compound 3.16 µM, first compound 3.16 µM): 22.8% | viability, T/C (second compound 3.16 µM, first compound 10 µM): 25.7% | viability, T/C [21]: 16.2% | viability, T/C [22]: 14.9% | viability, T/C [23]: 14.1% | viability, T/C [24]: 14% | viability, T/C (second compound 10 µM, first compound 3.16 µM): 15.3% | viability, T/C (second compound 10 µM, first compound 10 µM): 16%

Nc1ccn(C2OC(CO)C(O)C2(F)F)c(=O)n1 (centres undefined) + C#Cc1c(F)ccc2cc(O)cc(-c3ncc4c(N5CC6CCC(C5)N6)nc(OCC56CCCN5CC(F)C6)nc4c3F)c12
IC50 (second compound 0.0316 µM): 22.3 nM | IC50 (second compound 0.1 µM): 15.5 nM | IC50 (second compound 0.316 µM): 5.51 nM | IC50 (second compound 1 µM): < 3.16 nM | IC50 (second compound 3.16 µM): < 3.16 nM | IC50 (second compound 10 µM): < 3.16 nM | viability, T/C (second compound 0.0316 µM, first compound 0.00316 µM): 71.5% | viability, T/C (second compound 0.0316 µM, first compound 0.01 µM): 54% | viability, T/C [1]: 49.6% | viability, T/C [2]: 43.4% | viability, T/C [3]: 46.3% | viability, T/C [4]: 42.6% | viability, T/C (second compound 0.1 µM, first compound 0.00316 µM): 72.8% | viability, T/C (second compound 0.1 µM, first compound 0.01 µM): 55.1% | viability, T/C [5]: 41.7% | viability, T/C [6]: 38.3% | viability, T/C [7]: 34.5% | viability, T/C [8]: 38.2% | viability, T/C (second compound 0.316 µM, first compound 0.00316 µM): 51% | viability, T/C (second compound 0.316 µM, first compound 0.01 µM): 52.6% | viability, T/C [9]: 38.3% | viability, T/C [10]: 35.5% | viability, T/C [11]: 37.6% | viability, T/C [12]: 33.1% | viability, T/C (second compound 1 µM, first compound 0.00316 µM): 33.9% | viability, T/C (second compound 1 µM, first compound 0.01 µM): 31.9% | viability, T/C [13]: 31.6% | viability, T/C [14]: 33.2% | viability, T/C [15]: 36.8% | viability, T/C [16]: 30.3% | viability, T/C (second compound 3.16 µM, first compound 0.00316 µM): 30.4% | viability, T/C (second compound 3.16 µM, first compound 0.01 µM): 28.7% | viability, T/C [17]: 28.5% | viability, T/C [18]: 28.3% | viability, T/C [19]: 26.1% | viability, T/C [20]: 27.7% | viability, T/C (second compound 10 µM, first compound 0.00316 µM): 23.6% | viability, T/C (second compound 10 µM, first compound 0.01 µM): 21.3% | viability, T/C [21]: 20.8% | viability, T/C [22]: 18% | viability, T/C [23]: 20.2% | viability, T/C [24]: 20.1%
